The test system of data set [1] is E. coli HB101 transformant (17 kb plasmid). Conditions: disk diffusion, Tr (17 kb) = transformant E. coli HB101. On the technique in general: In agar diffusion tests the substance spreads into inoculated agar from a disc or well.
In data set [2] the test system is E. aerogenes. As to the kind of experiment: Double-disk potentiation test. Type of data set: cell-based, Enterobacter aerogenes. Conditions: all the E. aerogenes strains selected; potentiation by clavulanic acid. From the text:
This test described by Jarlier et al., Rev. Infect. Dis.

Data set [3] has as its system E. coli C600 transconjugant. Conditions: disk diffusion, Tc = transconjugate E. coli C600.
Data set [4] concerns K. pneumoniae 225. Conditions: test drug disk around amoxicillin-clavulanate disk.
The test system of data set [5] is K. pneumoniae 225. Description: NCCLS disk diffusion assay. The class given is cell-based, Klebsiella pneumoniae. The conditions noted are these: disk diffusion, Kleb 225.
Data set [6] has as its system E. aerogenes. Description: Vitek automated susceptibility system. The class given is cell-based, Enterobacter aerogenes. Conditions: the 31 selected E. aerogenes strains. From the text: Among all E. aerogenes recovered from clinical specimens during an eighteen month period (September 1993 to March 1995), thirty-one E. aerogenes strains showing a resistance phenotype different from that observed with derepressed mutants normally encountered at the Hunter Holmes McGuire Medical Center, Richmond, Va. were selected for this study. The strains selected were intermediate to ceftriaxone but resistant to ceftazidime when tested with the Vitek automated susceptibility system (bioMerieux Vitek, St. Louis, Mo.). Derepressed mutants previously isolated from this center were usually resistant to both ceftriaxone and ceftazidime.

In data set [7] the test system is K. pneumoniae 225. Description: NCCLS microdilution susceptibility test. Type of data set: cell-based, Klebsiella pneumoniae. The conditions noted are these: Klebsiella pneumoniae, 225. On the technique in general: Broth dilution looks for growth in wells or tubes with falling amounts of substance.
Data set [8] deals with K. pneumoniae 225. As to the kind of experiment: Three-dimensional test (enzymatic inactivation of antibiotics). The conditions noted are these: beta-lactamase-mediated hydrolysis by K. pneumoniae 225, lawn E. coli ATCC 25922.
Data set [9] has as its system SHV and TEM genes. Description: PCR amplification with TEM and SHV primers. Also noted: species or system Escherichia coli. On the procedure: (§1) The organisms were inoculated into 5 ml of Luria Bertani (LB) broth (Difco, Detroit, Mich.) and incubated for 20 hours at 37° C. with shaking. Cells from 1.5 ml of overnight culture were harvested by centrifugation at 17,310×g in an Hermle centrifuge for 5 minutes. After the supernatant was decanted, the pellet was resuspended in 500 μl of distilled water. The cells were lysed by heating at 95° C. for 10 minutes and cellular debris was removed by centrifugation for 5 minutes at 17,310×g. The supernatant was used as source of template for amplification.
(§2) The following oligonucleotide primers specific for the SHV and TEM genes were designed by using MacVector version 4.5 (Kodak/IBI): SHV genes: A [5′-([…])-3′] (SEQ ID NO:10) and B [5′-([…])-3′] (SEQ ID NO:11) corresponding to nucleotide numbers 103 to 121 and 988 to 970, respectively, of Mercier et al., Antibicrob. Agents Chemother. 34:1577-1583 (1990)); TEM genes: C [5′-([…])-3′ (SEQ ID NO:5) and D [5′-([…])-3′ (SEQ ID NO:1) corresponding to nucleotide numbers 90 to 105 and 1062 to 1042, respectively, of Sutcliff et al., Proc. Nat. Aca. Sci. USA, 75:3737-3741 (1978). Primers A and B amplified a 885 base pair fragment while primers C and D amplified a 971 base pair fragment. The specificity of the SHV and TEM primers for amplification of SHV and TEM genes respectively was tested by using the following beta-lactamase controls; TEM-I (pACYC177), MIR-1 (from K. pneumoniae96D) and SHV-7 (pCLL3410).
PCR amplifications were carried out on a DNA Thermal Cycler 480 instrument (Perkin-Elmer, Cetus, Norwalk, Conn.) using the Gene Amp DNA amplification kit containing AmpliTaq polymerase (Perkin Elmer, Roche Molecular Systems, Inc., Branchburg, N.J.). The composition of the reaction mixture was as follows: 10 mM Tris-HCl (pH 8.3), 50 mM KCl, 0.1% TRITON X-100, 1.5 mM MgCl2, 0.2 mM (each) of the four deoxynucleoside triphosphates, and 1.2 U of AmpliTaq in a total volume of 49 μl. A total of 1 μl of sample lysate was added to the reaction mixture, and was centrifuged briefly before […] of mineral oil was layered on the surface. The PCR program consisted of an initial denaturation step at 96° C. for 15 seconds; followed by 24 cycles of DNA denaturation at 96° C. for 15 seconds, primer annealing at 50° C. for 15 seconds and primer extension at 72° C. for 2 minutes. After the last cycle the products were stored at 4° C. The PCR products (1/10 volume) were analyzed by electrophoresis using 1.4% agarose gels in TAE buffer (0.04 M Tris-acetate, 0.002 M EDTA [pH 8.5]). The gels were stained with ethidium bromide and the PCR products were visualized with ultra-violet light. […]

For data set [10], the system named is SHV and TEM genes. As to the kind of experiment: PCR amplification with TEM and SHV primers. On the set-up: species or system Klebsiella pneumoniae. On the procedure: as §1, §2
PCR amplifications were carried out on a DNA Thermal Cycler 480 instrument (Perkin-Elmer, Cetus, Norwalk, Conn.) using the Gene Amp DNA amplification kit containing AmpliTaq polymerase (Perkin Elmer, Roche Molecular Systems, Inc., Branchburg, N.J.). The composition of the reaction mixture was as follows: 10 mM Tris-HCl (pH 8.3), 50 mM KCl, 0.1% TRITON X-100, 1.5 mM MgCl2, 0.2 mM (each) of the four deoxynucleoside triphosphates, and 1.2 U of AmpliTaq in a total volume of 49 μl. A total of 1 μl of sample lysate was added to the reaction mixture, and was centrifuged briefly before […] of mineral oil was layered on the surface. The PCR program consisted of an initial denaturation step at 96° C. for 15 seconds; followed by 24 cycles of DNA denaturation at 96° C. for 15 seconds, primer annealing at 50° C. for 15 seconds and primer extension at 72° C. for 2 minutes. After the last cycle the products were stored at 4° C. The PCR products (1/10 volume) were analyzed by electrophoresis using 1.4% agarose gels in TAE buffer (0.04 M Tris-acetate, 0.002 M EDTA [pH 8.5]). The gels were stained with ethidium bromide and the PCR products were visualized with ultra-violet light. […] The larger product which corresponded to the expected size of the SHV specific product was gel purified using a 1.4% agarose in TAE gel and the purified PCR product was used for sequence analysis.

Data set [11] relates to SHV and TEM genes. Description: PCR amplification with TEM and SHV primers. Also noted: species or system Proteus mirabilis. Conditions: P. mirabilis Pit 85 (pI 5.6, TEM-26-type). On the procedure: as §1
The following oligonucleotide primers specific for the SHV and TEM genes were designed by using MacVector version 4.5 (Kodak/IBI): SHV genes: A [5′-([…])-3′] (SEQ ID NO:10) and B [5′-([…])-3′] (SEQ ID NO:11) corresponding to nucleotide numbers 103 to 121 and 988 to 970, respectively, of Mercier et al., Antibicrob. Agents Chemother. […]
PCR amplifications were carried out on a DNA Thermal Cycler 480 instrument (Perkin-Elmer, Cetus, Norwalk, Conn.) using the Gene Amp DNA amplification kit containing AmpliTaq polymerase (Perkin Elmer, Roche Molecular Systems, Inc., Branchburg, N.J.). […] The PCR products (1/10 volume) were analyzed by electrophoresis using 1.4% agarose gels in TAE buffer (0.04 M Tris-acetate, 0.002 M EDTA [pH 8.5]). […]

Data set [12] concerns K. pneumoniae and A. hydrophila wound infection. Conditions: one patient, intravenous, after four weeks of therapy.
Setting [13] is: E. coli Pit 64 (pI 5.6, TEM-26-type).
[14] abbreviates: K. pneumoniae Pit 16 (pI 5.6, TEM-26-type).
Where [15] appears, read: K. pneumoniae Pit 82 (pI 8.2, SHV-5).
[16] abbreviates: K. pneumoniae Pit 100 (pI 7.6, SHV-2).

The results in this text go back to patent publication US6893846B2, “Primers for use in detecting beta-lactamases” (priority 1998, dated 2005).

In brackets after ≈: the same amount, converted by molar mass.

On to `CO/N=C(\C(=O)N[C@@H]1C(=O)N2C(C(=O)O)=C(CSc3nc(=O)c(=O)[nH]n3C)CS[C@H]12)c1csc(N)n1` [ceftriaxone], for which the “Zone Size” value in data set [1] is reported as 32 mm; in data set [3], 12 mm; in data set [5], 13 mm. In data set [2], the double disk test entry is listed as “positive”. Besides, the “clavulanate double-disk potentiation test” value in data set [4] is recorded as “positive”. The Vitek susceptibility result in data set [6] was “intermediate”. Also, the MIC (usually the lowest concentration found to suppress growth) in data set [7] stood at 16 µg/mL (≈ 28.9 µM). Besides, in [8], the three dimensional test result was “positive”.
For the molecule “SHV primers: primer pair A (SEQ ID NO:10) and B (SEQ ID NO:11) specific for the SHV genes (DNA 1 CACTCAAGGATGTATTGTG; DNA 2 TTAGCGTTGCCAGTGCTCG; listed as DNA, chemistry not given here)”, the Amplification with primers result in [9] (E. coli Pit 56 (pI 7.6, SHV-2)) is recorded as “Yes”; in data set [9] (setting [13]), “No”; in data set [10] (setting [14]), “No”; in data set [10] (setting [15]), “Yes”; in data set [10] (setting [16]) it was “Yes”; in data set [11] it was “No”.
For “TEM primers: primer pair C (SEQ ID NO:5) and D (SEQ ID NO:1) specific for the TEM genes (DNA 1 TCGGGGAAATGTGCG; DNA 2 TGCTTAATCAGTGAGGCACC; listed as DNA, chemistry not given here)”, the Amplification with primers entry in data set [9] (E. coli Pit 56 (pI 7.6, SHV-2)) is “No”; in data set [9] (setting [13]), “Yes”; in data set [10] (setting [14]) it was “Yes”; in data set [10] (setting [15]) it was “No”; in data set [10] (setting [16]), “No”; in [11] it was “Yes”.
Regarding imipenem/cilastatin, the “clinical outcome of therapy” value in data set [12] is listed as “all signs of inflammation resolved”.
